Paper PMC7520961, “Safety evaluation of the interchangeable use of robenacoxib in commercially-available tablets and solution for injection in cats” (BMC Veterinary Research, 2020)

How the values were obtained:
[1] = parameters: method as in PMID 19161452, PMID 23438125; details: elimination in the cat; cited from earlier work
[2] = test system: cats; experiment: Clinical chemistry (target animal safety study); format: in vivo, cat; details: for Total Bilirubin (mean ± SD) / GGT (mean ± SD) / AST (mean ± SD) / Creatine Kinase (mean ± SD) / Creatinine (mean ± SD) / Albumin/Globulin Ratio (mean ± SD) / Globulin (mean ± SD) / Albumin (mean ± SD) / Potassium (mean ± SD) / Total Protein (mean ± SD) / Phosphorus (mean ± SD) / Calcium (mean ± SD) / Triglyceride (mean ± SD) / Urea Nitrogen (mean ± SD) / ALT (mean ± SD) / Alkaline Phosphatase (mean ± SD) / Glucose (mean ± SD) / Cholesterol (mean ± SD) / Chloride (mean ± SD) / Sodium (mean ± SD): post-treatment, average of days 13 and 37; for Total Bilirubin (mean ± SD): reference range 0 - 0.3; for GGT (mean ± SD): reference range 0 – 2; for GGT (mean ± SD) / Albumin/Globulin Ratio (mean ± SD): significant treatment x sex and treatment x time effects (p<0.1); for AST (mean ± SD): reference range 0 – 55; for AST (mean ± SD) / Triglyceride (mean ± SD): significant treatment x sex effect (p<0.1); for Creatine Kinase (mean ± SD): reference range 0 – 1213; for Creatinine (mean ± SD): reference range 0.5 - 1.3; for Albumin/Globulin Ratio (mean ± SD): reference range 0.9 - 1.5; for Globulin (mean ± SD): reference range 2.1 - 3.3; for Albumin (mean ± SD): reference range 2.9 - 3.7; for Potassium (mean ± SD): reference range 4.6 - 7.4, significant treatment x time effect (p<0.1); for Total Protein (mean ± SD): reference range 5.4 - 6.7; for Phosphorus (mean ± SD): reference range 6.2 - 9.7, significant (p<0.1); for Calcium (mean ± SD): reference range 9.6 - 11.5; for Triglyceride (mean ± SD): reference range 12 – 64; for Urea Nitrogen (mean ± SD): reference range 15 – 35; for ALT (mean ± SD): reference range 27 – 103; for Alkaline Phosphatase (mean ± SD): reference range 50 – 186; for Glucose (mean ± SD): reference range 55 - 159; for Cholesterol (mean ± SD): reference range 88 – 148; for Chloride (mean ± SD): reference range 112 – 123; for Sodium (mean ± SD): reference range 146 – 160
Method: The upper lip was everted and a Surgicutt incision device was used to create a small incision (approximately 1 mm in depth and 3.5 mm in length). Blood flow from the incision site was blotted using filter paper below the incision. The elapsed time from the triggering of the device until blood no longer appeared on the filter paper was recorded as the bleed time. […] Blood samples (3.0 mL) were collected from the jugular vein into tubes containing K3EDTA for evaluation of hematology parameters, sodium citrate for evaluation of coagulation parameters, and serum separators with no anticoagulant for the clinical chemistry samples. […] Coagulation variables were determined using a Stago Compact (Diagnostica Stago, Parsippany, NJ, US), clinical chemistry variables were determined using an Olympus AU2700 or AU640e (Olympus Diagnostics, Southall, UK), and urinalysis variables were determined using a […]-500 or Atlas (Siemens, Munich, Germany), Reichert VET 360 (Reichert Technologies, Buffalo, New York, USA), or light microscope. Post-treatment values were analyzed using […], with treatment group, sex, time, and their interactions as fixed model effects and the pre-treatment value measured closest to dosing as a covariate. Repeated measurements in the same animal were modeled using a compound symmetry or heterogeneous compound symmetry correlation structure (for food consumption: autoregressive first-order or heterogeneous autoregressive first-order); the model with the smallest Akaike's Information Criterion was selected for each outcome. If any of the interactions involving treatment was significant (p < 0.1 for the two-factor interactions or p < 0.05 for the three-factor interaction), it was inappropriate to evaluate the main or overall treatment effect independently of the interacting factor and, as such, treatment comparisons were conducted for each level of the interacting factor. If none of the interactions involving treatment were significant, overall treatment differences were assessed.

[3] = test system: cats; details: in vivo
[4] = 1X (oral ≥2.4, SC 2.0 mg/kg/day)
[5] = 2X (oral ≥4.8, SC 4.0 mg/kg/day)
[6] = 3X (oral ≥7.2, SC 6.0 mg/kg/day)

CCc1ccc(Nc2c(F)c(F)cc(F)c2F)c(CC(=O)O)c1 [robenacoxib]
half-life [1]: less than 2 hours
Total Bilirubin (mean ± SD) [2, 4]: 0.18 ± 0.04 mg/dL
GGT (mean ± SD) [2, 4]: 1.14 ± 0.43 U/L
AST (mean ± SD) [2, 4]: 22.2 ± 8.6 U/L
Creatine Kinase (mean ± SD) [2, 4]: 1479 ± 1901 U/L
Creatinine (mean ± SD) [2, 4]: 0.86 ± 0.13 mg/dL
Albumin/Globulin Ratio (mean ± SD) [2, 4]: 1.29 ± 0.14
Globulin (mean ± SD) [2, 4]: 2.62 ± 0.23 g/dL
Albumin (mean ± SD) [2, 4]: 3.31 ± 0.21 g/dL
Potassium (mean ± SD) [2, 4]: 5.40 ± 0.24 mEq/L
Total Protein (mean ± SD) [2, 4]: 5.93 ± 0.28 g/dL
Phosphorus (mean ± SD) [2, 4]: 8.86 ± 0.76 mg/dL
Calcium (mean ± SD) [2, 4]: 10.01 ± 0.31 mg/dL
Triglyceride (mean ± SD) [2, 4]: 40.1 ± 27.2 mg/dL
Urea Nitrogen (mean ± SD) [2, 4]: 25.3 ± 2.7 mg/dL
ALT (mean ± SD) [2, 4]: 54.6 ± 9.2 U/L
Alkaline Phosphatase (mean ± SD) [2, 4]: 105.6 ± 40.6 U/L
Glucose (mean ± SD) [2, 4]: 85.1 ± 7.1 mg/dL
Cholesterol (mean ± SD) [2, 4]: 105.0 ± 18.1 mg/dL
Chloride (mean ± SD) [2, 4]: 116.63 ± 1.50 mEq/L
Sodium (mean ± SD) [2, 4]: 150.3 ± 1.3 mEq/L
Total Bilirubin (mean ± SD) [2, 5]: 0.19 ± 0.03 mg/dL
GGT (mean ± SD) [2, 5]: 1.33 ± 0.65 U/L
AST (mean ± SD) [2, 5]: 22.0 ± 4.1 U/L
Creatine Kinase (mean ± SD) [2, 5]: 975 ± 903 U/L
Creatinine (mean ± SD) [2, 5]: 0.85 ± 0.12 mg/dL
Albumin/Globulin Ratio (mean ± SD) [2, 5]: 1.36 ± 0.14
Globulin (mean ± SD) [2, 5]: 2.57 ± 0.28 g/dL
Albumin (mean ± SD) [2, 5]: 3.46 ± 0.17 g/dL
Potassium (mean ± SD) [2, 5]: 5.33 ± 0.41 mEq/L
Total Protein (mean ± SD) [2, 5]: 6.03 ± 0.35 g/dL
Phosphorus (mean ± SD) [2, 5]: 8.18 ± 0.83 mg/dL
Calcium (mean ± SD) [2, 5]: 10.16 ± 0.26 mg/dL
Triglyceride (mean ± SD) [2, 5]: 32.4 ± 9.1 mg/dL
Urea Nitrogen (mean ± SD) [2, 5]: 24.8 ± 4.0 mg/dL
ALT (mean ± SD) [2, 5]: 56.6 ± 9.4 U/L
Alkaline Phosphatase (mean ± SD) [2, 5]: 94.5 ± 24.4 U/L
Glucose (mean ± SD) [2, 5]: 84.1 ± 9.0 mg/dL
Cholesterol (mean ± SD) [2, 5]: 103.9 ± 14.2 mg/dL
Chloride (mean ± SD) [2, 5]: 115.88 ± 1.71 mEq/L
Sodium (mean ± SD) [2, 5]: 150.5 ± 1.4 mEq/L
phosphorus relative to controls (pairwise comparison, pooled samples over all time points) ([2]; 2X group, not considered clinically relevant): decrease
Total Bilirubin (mean ± SD) [2, 6]: 0.19 ± 0.03 mg/dL
GGT (mean ± SD) [2, 6]: 0.94 ± 0.05 U/L
AST (mean ± SD) [2, 6]: 22.8 ± 6.8 U/L
Creatine Kinase (mean ± SD) [2, 6]: 1763 ± 2175 U/L
Creatinine (mean ± SD) [2, 6]: 0.79 ± 0.12 mg/dL
Albumin/Globulin Ratio (mean ± SD) [2, 6]: 1.32 ± 0.16
Globulin (mean ± SD) [2, 6]: 2.66 ± 0.29 g/dL
Albumin (mean ± SD) [2, 6]: 3.44 ± 0.18 g/dL
Potassium (mean ± SD) [2, 6]: 5.50 ± 0.43 mEq/L
Total Protein (mean ± SD) [2, 6]: 6.10 ± 0.34 g/dL
Phosphorus (mean ± SD) [2, 6]: 8.66 ± 0.78 mg/dL
Calcium (mean ± SD) [2, 6]: 10.17 ± 0.26 mg/dL
Triglyceride (mean ± SD) [2, 6]: 37.7 ± 14.7 mg/dL
Urea Nitrogen (mean ± SD) [2, 6]: 25.2 ± 3.9 mg/dL
ALT (mean ± SD) [2, 6]: 55.3 ± 10.5 U/L
Alkaline Phosphatase (mean ± SD) [2, 6]: 90.0 ± 19.5 U/L
Glucose (mean ± SD) [2, 6]: 83.1 ± 6.2 mg/dL
Cholesterol (mean ± SD) [2, 6]: 112.6 ± 23.7 mg/dL
Chloride (mean ± SD) [2, 6]: 115.81 ± 1.97 mEq/L
Sodium (mean ± SD) [2, 6]: 150.6 ± 1.5 mEq/L
opthalmoscopic, physical and neurological examinations [3]: no treatment-related effects
